Assay type in all cases: biochemical
One assay addresses T1, MKK4 (Homo sapiens, UniProt P45985).
T1 construct: purchased ProQinase GmbH, Freiburg, Germany (assay service)
T1 sequence (P45985 1-399): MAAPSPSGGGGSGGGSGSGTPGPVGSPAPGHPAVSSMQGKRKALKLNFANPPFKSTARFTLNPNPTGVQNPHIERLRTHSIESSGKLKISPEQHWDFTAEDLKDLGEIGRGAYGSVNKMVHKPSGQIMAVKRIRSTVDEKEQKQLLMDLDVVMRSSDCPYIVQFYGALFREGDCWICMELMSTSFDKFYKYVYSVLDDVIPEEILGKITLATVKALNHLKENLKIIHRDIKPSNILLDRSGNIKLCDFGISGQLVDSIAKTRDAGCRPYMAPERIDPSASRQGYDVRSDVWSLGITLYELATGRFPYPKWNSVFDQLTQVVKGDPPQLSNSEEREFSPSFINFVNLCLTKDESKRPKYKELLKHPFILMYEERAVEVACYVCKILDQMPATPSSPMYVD
Nature of the assay: 33PanQinase radiometric kinase assay, MKK4. The note with it: category based on IC50-values; ATP at apparent Km; read-out: Potency MKK4. How it is done:
(§1) The kinase activities of the compounds of the invention were measured using the 33PanQinase® Assay Service provided by ProQinase GmbH, Freiburg, Germany. Details of the assay conditions are disclosed on the website of ProQinase (https://www.proqinase.com/products-services-biochemical-assay-services/kinase-assays). In brief, all kinase assays were performed in 96-well FlashPlates™ from PerkinElmer (Boston, MA, USA) in a 50 μl reaction volume. The reaction cocktail was pipetted in four steps in the following order: • 20 μl of assay buffer (standard buffer) • 5 μl of ATP solution (in H2O) • 5 μl of test compound (in 10% DMSO) • 20 μl enzyme/substrate mix
(§2) The reaction cocktails were incubated at 30° C. for 60 minutes. The reaction is stopped with 50 μl of 2% (v/v) H3PO4, plates were aspirated and washed two times with 200 μl 0.9% (w/v) NaCl. Incorporation of ^33Pi was determined with a microplate scintillation counter (Microbeta, Wallac).
(§3) All assays were performed with a BeckmanCoulter/SAGIAN™ Core System.
(§4) In case of single concentration assays, the potency of the test compound is expressed as % residual activity. […] The fitting method used was a least-squares fit.

For another assay, the target named is T2, BRaf (Homo sapiens, UniProt P15056).
T2 construct: purchased ProQinase GmbH, Freiburg, Germany (assay service)
The assay can be described thus: 33PanQinase radiometric kinase assay, BRaf (off-target). The note with it: ratio IC50(off-target)/IC50(MKK4). On the procedure:
as §1, §2, §3, §4
(§5) Selectivity of test compounds against BRaf, JNK1 and MKK7, altogether denominated as off-targets was calculated by the ratio of IC50 (off-target)/IC50 (MKK4) and categorized as follows: […]

The target of the next assay is T3, JNK1 (Homo sapiens, UniProt P45983).
T3 construct: purchased ProQinase GmbH, Freiburg, Germany (assay service)
The assay can be described thus: 33PanQinase radiometric kinase assay, JNK1 (off-target). The note with it: ratio IC50(off-target)/IC50(MKK4). On the procedure:
as §1, §2, §3, §4, §5

The next assay addresses T4, MKK7 (Homo sapiens, UniProt O14733).
T4 construct: purchased ProQinase GmbH, Freiburg, Germany (assay service)
T4 sequence (O14733 1-419): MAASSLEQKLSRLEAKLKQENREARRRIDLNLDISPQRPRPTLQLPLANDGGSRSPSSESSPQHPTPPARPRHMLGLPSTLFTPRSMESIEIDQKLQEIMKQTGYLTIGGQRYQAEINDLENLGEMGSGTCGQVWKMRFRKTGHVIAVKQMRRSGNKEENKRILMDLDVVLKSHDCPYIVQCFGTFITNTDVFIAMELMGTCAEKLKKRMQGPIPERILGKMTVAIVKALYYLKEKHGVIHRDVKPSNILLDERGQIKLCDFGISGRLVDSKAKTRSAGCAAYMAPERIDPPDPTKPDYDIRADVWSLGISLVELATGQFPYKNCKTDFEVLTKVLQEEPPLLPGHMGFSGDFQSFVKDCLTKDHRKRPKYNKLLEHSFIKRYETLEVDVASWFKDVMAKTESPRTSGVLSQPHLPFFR
The assay can be described thus: 33PanQinase radiometric kinase assay, MKK7 (off-target). The note with it: ratio IC50(off-target)/IC50(MKK4). How it is done:
as §1, §2, §3, §4, §5

The results in this text go back to patent US12643895B2, “Heteroaryl-substituted pyrazolo-pyridine protein kinase inhibitors for promoting liver regeneration or reducing or preventing hepatocyte death” (HepaRegeniX GmbH, priority 2019, dated 2026).

T2 sequence (P15056 whole entry): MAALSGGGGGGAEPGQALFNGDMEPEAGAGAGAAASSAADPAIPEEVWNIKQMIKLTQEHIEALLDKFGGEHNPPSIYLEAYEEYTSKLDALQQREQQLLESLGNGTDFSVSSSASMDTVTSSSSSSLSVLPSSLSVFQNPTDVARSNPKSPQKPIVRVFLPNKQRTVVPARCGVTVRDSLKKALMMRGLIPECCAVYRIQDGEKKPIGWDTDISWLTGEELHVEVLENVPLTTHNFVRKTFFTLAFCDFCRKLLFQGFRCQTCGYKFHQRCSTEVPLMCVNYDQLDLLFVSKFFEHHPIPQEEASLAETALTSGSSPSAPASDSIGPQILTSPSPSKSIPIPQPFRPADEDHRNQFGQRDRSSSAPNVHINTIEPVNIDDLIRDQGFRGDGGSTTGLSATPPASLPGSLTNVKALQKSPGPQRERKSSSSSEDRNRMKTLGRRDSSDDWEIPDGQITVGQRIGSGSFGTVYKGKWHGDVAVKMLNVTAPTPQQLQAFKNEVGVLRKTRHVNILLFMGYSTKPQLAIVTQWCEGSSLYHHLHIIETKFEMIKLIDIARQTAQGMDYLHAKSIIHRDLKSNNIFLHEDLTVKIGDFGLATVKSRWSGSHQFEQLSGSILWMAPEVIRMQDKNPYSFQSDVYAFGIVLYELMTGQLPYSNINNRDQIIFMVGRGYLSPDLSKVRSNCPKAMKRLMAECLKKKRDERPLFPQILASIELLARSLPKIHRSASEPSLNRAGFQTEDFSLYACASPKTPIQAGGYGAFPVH
T3 sequence (P45983 whole entry): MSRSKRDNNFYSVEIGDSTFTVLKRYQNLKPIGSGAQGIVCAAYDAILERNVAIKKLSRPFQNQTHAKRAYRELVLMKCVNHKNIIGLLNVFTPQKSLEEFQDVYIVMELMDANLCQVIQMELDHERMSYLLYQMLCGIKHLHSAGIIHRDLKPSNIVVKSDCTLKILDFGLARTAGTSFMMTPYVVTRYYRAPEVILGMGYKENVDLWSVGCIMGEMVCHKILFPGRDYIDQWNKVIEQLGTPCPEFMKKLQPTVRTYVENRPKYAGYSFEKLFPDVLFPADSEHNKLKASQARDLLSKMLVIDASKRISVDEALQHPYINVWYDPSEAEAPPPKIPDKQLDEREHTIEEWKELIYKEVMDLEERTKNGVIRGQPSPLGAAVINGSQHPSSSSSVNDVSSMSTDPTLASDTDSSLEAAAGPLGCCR

Consider `CCCS(=O)(=O)Nc1c(F)cc(F)c(C(=O)c2n[nH]c3ncc(-c4cnc(C5CC5)nc4)cc23)c1F` [Example 35, N-(3-(5-(2-cyclopropylpyrimidin-5-yl)-1H-pyrazolo[3,4-b]pyridine-3-carbonyl)-2,4,6-trifluorophenyl)propane-1-sulfonamide], for which, at MKK4, the IC50 was below 100 nM. Besides, the “Selectivity Braf” value at BRaf is “+++ (IC50(off-target)/IC50(MKK4) > 100)”. In addition, at JNK1, the “Selectivity JNK1” value was “+++ (IC50(off-target)/IC50(MKK4) > 100)”. Further, at MKK7, the “Selectivity MKK7” value is “+++ (IC50(off-target)/IC50(MKK4) > 100)”.
In the case of `CCCS(=O)(=O)Nc1c(F)ccc(C(=O)c2n[nH]c3ncc(-c4ccncc4CC)cc23)c1F` [Example 36, N-[3-[5-(3-ethyl-4-pyridyl)-1H-pyrazolo[3,4-b]pyridine-3-carbonyl]-2,6-difluoro-phenyl]propane-1-sulfonamide], the IC50 at MKK4 was below 100 nM. For the same molecule, at BRaf, the “Selectivity Braf” value is “+++ (IC50(off-target)/IC50(MKK4) > 100)”. Besides, the “Selectivity JNK1” value at JNK1 is on record as “+++ (IC50(off-target)/IC50(MKK4) > 100)”. Also, the “Selectivity MKK7” value at MKK7 is given as “+++ (IC50(off-target)/IC50(MKK4) > 100)”.
Consider `CCCS(=O)(=O)Nc1c(F)ccc(C(=O)c2n[nH]c3ncc(-c4ccncc4C#N)cc23)c1F` [Example 37, N-[3-[5-(3-cyano-4-pyridyl)-1H-pyrazolo[3,4-b]pyridine-3-carbonyl]-2,6-difluoro-phenyl]propane-1-sulfonamide], for which, at MKK4, the IC50 was below 100 nM. Moreover, the “Selectivity Braf” value at BRaf was “+++ (IC50(off-target)/IC50(MKK4) > 100)”. For the same molecule, the “Selectivity JNK1” value on JNK1 is on record as “+++ (IC50(off-target)/IC50(MKK4) > 100)”. Moreover, the “Selectivity MKK7” value at MKK7 is on record as “+++ (IC50(off-target)/IC50(MKK4) > 100)”.
